# Test results from US9499550B2 (BRISTOL-MYERS SQUIBB COMPANY, priority 2012, dated 2016).
# Where two headings read alike, the source gives them in different places.
# Columns and labels:
# [1] = tested on: HCV genotype 1b (Con1) replicon in HUH-7 cells; assay: HCV replicon luciferase reporter assay, genotype 1b; type: cell-based; settings: Hepatitis C virus, Huh-7, 72 h, HCV genotype 1b replicon luciferase assay, 3 days incubation
# Summary of the method: (§1)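 Replicon inhibition for both genotypes was measured as Renilla luciferase signal (EnduRen, 7.5 μM final, 2 h) after 3-day, 37° C exposure of replicon-bearing HUH-7 cells in 4% FCS DMEM, 0.5% DMSO. The 1b construct carries S1179I; the 1a H77 construct carries P1496L and S2204I. Twenty-point, 3-fold dilutions were fitted four-parametrically for EC50, and CC50 was taken from multiplexed Cell Titer-Blue.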
# [2] = tested on: HCV genotype 1a (H77 strain) replicon in HUH-7 cells; assay: HCV replicon luciferase reporter assay, genotype 1a; type: cell-based; settings: Hepatitis C virus, Huh-7, 72 h, HCV genotype 1a replicon luciferase assay, 3 days incubation
# Summary of the method: as §1
# [3] = range class, read-out: LE_1b (EC50, range)
# [4] = range class, read-out: LE_1a (EC50, range)
Compound,"EC50 [1, 3]",EC50 ([1]; read-out: LE_1b (EC50)),"EC50 [2, 4]",EC50 ([2]; read-out: LE_1a (EC50))
"COCCn1nc(O[C@@H]2C[C@H]3C(=O)N[C@]4(C(=O)NS(=O)(=O)C5CC5)C[C@H]4/C=C\CC[C@H](C)C[C@@H](C)[C@H](NC(=O)OC(C)(C)C)C(=O)N3C2)c2ccccc2c1=O [Compound 1007, tert-butyl ((2R,6S,7R,9S,13aS,14aR,16aS,Z)-14a-((cyclopropylsulfonyl)carbamoyl)-2-((3-(2-methoxyethyl)-4-oxo-3,4-dihydrophthalazin-1-yl)oxy)-7,9-dimethyl-5,16-dioxo-1,2,3,5,6,7,8,9,10,11,13a,14,14a,15,16,16a-hexadecahydrocyclopropa[e]pyrrolo[1,2-a][1,4]diazacyclopentadecin-6-yl)carbamate]",> 87.4 nM,438 nM,> 87.4 nM,≥ 1000 nM
"COCCn1nc(O[C@@H]2C[C@H]3C(=O)N[C@]4(C(=O)NS(=O)(=O)C5CC5)C[C@H]4/C=C\CC[C@@H](C)C[C@@H](C)[C@H](NC(=O)OC(C)(C)C)C(=O)N3C2)c2ccccc2c1=O [Compound 1008, tert-butyl ((2R,6S,7R,9R,13aS,14aR,16aS,Z)-14a-((cyclopropylsulfonyl)carbamoyl)-2-((3-(2-methoxyethyl)-4-oxo-3,4-dihydrophthalazin-1-yl)oxy)-7,9-dimethyl-5,16-dioxo-1,2,3,5,6,7,8,9,10,11,13a,14,14a,15,16,16a-hexadecahydrocyclopropa[e]pyrrolo[1,2-a][1,4]diazacyclopentadecin-6-yl)carbamate]",4.82 to 103 nM,,4.82 to 103 nM,
"CC(C)n1nc(O[C@@H]2C[C@H]3C(=O)N[C@]4(C(=O)NS(=O)(=O)C5CC5)C[C@H]4/C=C\CC[C@H](C)C[C@@H](C)[C@H](NC(=O)OC(C)(C)C(F)(F)F)C(=O)N3C2)c2ccccc2c1=O [Compound 1009, 1,1,1-trifluoro-2-methylpropan-2-yl((2R,6S,7R,9S,13aS,14aR,16aS,Z)-14a-((cyclopropylsulfonyl)carbamoyl)-2-((3-isopropyl-4-oxo-3,4-dihydrophthalazin-1-yl)oxy)-7,9-dimethyl-5,16-dioxo-1,2,3,5,6,7,8,9,10,11,13a,14,14a,15,16,16a-hexadecahydrocyclopropa[e]pyrrolo[1,2-a][1,4]diazacyclopentadecin-6-yl)carbamate]",> 87.4 nM,,> 87.4 nM,
"CC(C)n1nc(O[C@@H]2C[C@H]3C(=O)N[C@]4(C(=O)NS(=O)(=O)C5CC5)C[C@H]4/C=C\CC[C@@H](C)C[C@@H](C)[C@H](NC(=O)OC(C)(C)C(F)(F)F)C(=O)N3C2)c2ccccc2c1=O [Compound 1010, 1,1,1-trifluoro-2-methylpropan-2-yl((2R,6S,7R,9R,13aS,14aR,16aS,Z)-14a-((cyclopropylsulfonyl)carbamoyl)-2-((3-isopropyl-4-oxo-3,4-dihydrophthalazin-1-yl)oxy)-7,9-dimethyl-5,16-dioxo-1,2,3,5,6,7,8,9,10,11,13a,14,14a,15,16,16a-hexadecahydrocyclopropa[e]pyrrolo[1,2-a][1,4]diazacyclopentadecin-6-yl)carbamate]",4.82 to 103 nM,,4.82 to 103 nM,
"CC(C)n1nc(O[C@@H]2C[C@H]3C(=O)N[C@]4(C(=O)NS(=O)(=O)C5(C)CC5)C[C@H]4/C=C\CC[C@H](C)C[C@@H](C)[C@H](NC(=O)OC(C)(C)C(F)(F)F)C(=O)N3C2)c2ccccc2c1=O [Compound 1011, 1,1,1-trifluoro-2-methylpropan-2-yl((2R,6S,7R,9S,13aS,14aR,16aS,Z)-2-((3-isopropyl-4-oxo-3,4-dihydrophthalazin-1-yl)oxy)-7,9-dimethyl-14a-(((1-methylcyclopropyl)sulfonyl)carbamoyl)-5,16-dioxo-1,2,3,5,6,7,8,9,10,11,13a,14,14a,15,16,16a-hexadecahydrocyclopropa[e]pyrrolo[1,2-a][1,4]diazacyclopentadecin-6-yl)carbamate]",> 87.4 nM,362 nM,> 87.4 nM,≥ 1000 nM
"CC(C)n1nc(O[C@@H]2C[C@H]3C(=O)N[C@]4(C(=O)NS(=O)(=O)C5(C)CC5)C[C@H]4/C=C\CC[C@@H](C)C[C@@H](C)[C@H](NC(=O)OC(C)(C)C(F)(F)F)C(=O)N3C2)c2ccccc2c1=O [Compound 1012, 1,1,1-trifluoro-2-methylpropan-2-yl((2R,6S,7R,9R,13aS,14aR,16aS,Z)-2-((3-isopropyl-4-oxo-3,4-dihydrophthalazin-1-yl)oxy)-7,9-dimethyl-14a-(((1-methylcyclopropyl)sulfonyl)carbamoyl)-5,16-dioxo-1,2,3,5,6,7,8,9,10,11,13a,14,14a,15,16,16a-hexadecahydrocyclopropa[e]pyrrolo[1,2-a][1,4]diazacyclopentadecin-6-yl)carbamate]",4.82 to 103 nM,,4.82 to 103 nM,
"COCCn1nc(O[C@@H]2C[C@H]3C(=O)N[C@]4(C(=O)NS(=O)(=O)C5(C)CC5)C[C@H]4/C=C\CC[C@@H](C)C[C@@H](C)[C@H](NC(=O)OC(C)(C)C(F)(F)F)C(=O)N3C2)c2ccccc2c1=O [Compound 1014, 1,1,1-trifluoro-2-methylpropan-2-yl((2R,6S,7R,9R,13aS,14aR,16aS,Z)-2-((3-(2-methoxyethyl)-4-oxo-3,4-dihydrophthalazin-1-yl)oxy)-7,9-dimethyl-14a-(((1-methylcyclopropyl)sulfonyl)carbamoyl)-5,16-dioxo-1,2,3,5,6,7,8,9,10,11,13a,14,14a,15,16,16a-hexadecahydrocyclopropa[e]pyrrolo[1,2-a][1,4]diazacyclopentadecin-6-yl)carbamate]",4.82 to 103 nM,,4.82 to 103 nM,
"CC(C)n1nc(O[C@@H]2C[C@H]3C(=O)N[C@]4(C(=O)NS(=O)(=O)C5(C)CC5)C[C@H]4/C=C\CC[C@H](C)C[C@@H](C)[C@H](NC(=O)OC(C)(C)C(C)(F)F)C(=O)N3C2)c2ccccc2c1=O [Compound 1015, 3,3-difluoro-2-methylbutan-2-yl((2R,6S,7R,9S,13aS,14aR,16aS,Z)-2-((3-isopropyl-4-oxo-3,4-dihydrophthalazin-1-yl)oxy)-7,9-dimethyl-14a-(((1-methylcyclopropyl)sulfonyl)carbamoyl)-5,16-dioxo-1,2,3,5,6,7,8,9,10,11,13a,14,14a,15,16,16a-hexadecahydrocyclopropa[e]pyrrolo[1,2-a][1,4]diazacyclopentadecin-6-yl)carbamate]",> 87.4 nM,,> 87.4 nM,
"CC(C)n1nc(O[C@@H]2C[C@H]3C(=O)N[C@]4(C(=O)NS(=O)(=O)C5(C)CC5)C[C@H]4/C=C\CC[C@@H](C)C[C@@H](C)[C@H](NC(=O)OC(C)(C)C(C)(F)F)C(=O)N3C2)c2ccccc2c1=O [Compound 1016, 3,3-difluoro-2-methylbutan-2-yl((2R,6S,7R,9R,13aS,14aR,16aS,Z)-2-((3-isopropyl-4-oxo-3,4-dihydrophthalazin-1-yl)oxy)-7,9-dimethyl-14a-(((1-methylcyclopropyl)sulfonyl)carbamoyl)-5,16-dioxo-1,2,3,5,6,7,8,9,10,11,13a,14,14a,15,16,16a-hexadecahydrocyclopropa[e]pyrrolo[1,2-a][1,4]diazacyclopentadecin-6-yl)carbamate]",4.82 to 103 nM,,4.82 to 103 nM,
"CC(C)n1nc(O[C@@H]2C[C@H]3C(=O)N[C@]4(C(=O)NS(=O)(=O)C5CC5)C[C@H]4/C=C\CC[C@H](C)C[C@@H](C)[C@H](NC(=O)OC(C)(C)C(C)(F)F)C(=O)N3C2)c2ccccc2c1=O [Compound 1017, 3,3-difluoro-2-methylbutan-2-yl((2R,6S,7R,9S,13aS,14aR,16aS,Z)-14a-((cyclopropylsulfonyl)carbamoyl)-2-((3-isopropyl-4-oxo-3,4-dihydrophthalazin-1-yl)oxy)-7,9-dimethyl-5,16-dioxo-1,2,3,5,6,7,8,9,10,11,13a,14,14a,15,16,16a-hexadecahydrocyclopropa[e]pyrrolo[1,2-a][1,4]diazacyclopentadecin-6-yl)carbamate]",> 87.4 nM,,> 87.4 nM,
"CC(C)n1nc(O[C@@H]2C[C@H]3C(=O)N[C@]4(C(=O)NS(=O)(=O)C5CC5)C[C@H]4/C=C\CC[C@@H](C)C[C@@H](C)[C@H](NC(=O)OC(C)(C)C(C)(F)F)C(=O)N3C2)c2ccccc2c1=O [Compound 1018, 3,3-difluoro-2-methylbutan-2-yl((2R,6S,7R,9R,13aS,14aR,16aS,Z)-14a-((cyclopropylsulfonyl)carbamoyl)-2-((3-isopropyl-4-oxo-3,4-dihydrophthalazin-1-yl)oxy)-7,9-dimethyl-5,16-dioxo-1,2,3,5,6,7,8,9,10,11,13a,14,14a,15,16,16a-hexadecahydrocyclopropa[e]pyrrolo[1,2-a][1,4]diazacyclopentadecin-6-yl)carbamate]",4.82 to 103 nM,,4.82 to 103 nM,
"COCCn1nc(O[C@@H]2C[C@H]3C(=O)N[C@]4(C(=O)NS(=O)(=O)C5(C)CC5)C[C@H]4/C=C\CC[C@H](C)C[C@@H](C)[C@H](NC(=O)OC(C)(C)C(C)(F)F)C(=O)N3C2)c2ccccc2c1=O [Compound 1019, 3,3-difluoro-2-methylbutan-2-yl((2R,6S,7R,9S,13aS,14aR,16aS,Z)-2-((3-(2-methoxyethyl)-4-oxo-3,4-dihydrophthalazin-1-yl)oxy)-7,9-dimethyl-14a-(((1-methylcyclopropyl)sulfonyl)carbamoyl)-5,16-dioxo-1,2,3,5,6,7,8,9,10,11,13a,14,14a,15,16,16a-hexadecahydrocyclopropa[e]pyrrolo[1,2-a][1,4]diazacyclopentadecin-6-yl)carbamate]",> 87.4 nM,506 nM,> 87.4 nM,≥ 1000 nM
